In the NIST ThermoML archive (doi:10.1021/je900596d):

Conditions: for mass density: Vibrating tube method; for vapor or sublimation pressure: Closed cell (Static) method

FC(F)=C(F)C(F)(F)F [hexafluoropropene]
Conditions | mass density [kg/m3]
355.27 K, 1594.4 kPa, Fluid (supercritical or subcritical phases) | 103.05
355.27 K, 1615.6 kPa, Fluid (supercritical or subcritical phases) | 104.91
355.27 K, 1637.4 kPa, Fluid (supercritical or subcritical phases) | 106.88
355.27 K, 1658.5 kPa, Fluid (supercritical or subcritical phases) | 108.66
355.27 K, 1679.5 kPa, Fluid (supercritical or subcritical phases) | 110.49
355.27 K, 1700.6 kPa, Fluid (supercritical or subcritical phases) | 112.4
355.27 K, 1722 kPa, Fluid (supercritical or subcritical phases) | 114.41
355.27 K, 1742.9 kPa, Fluid (supercritical or subcritical phases) | 116.28
355.27 K, 1765.2 kPa, Fluid (supercritical or subcritical phases) | 118.41
355.27 K, 1787.1 kPa, Fluid (supercritical or subcritical phases) | 120.47
355.27 K, 1808.3 kPa, Fluid (supercritical or subcritical phases) | 122.49
355.27 K, 1829.9 kPa, Fluid (supercritical or subcritical phases) | 124.54
355.27 K, 1850.6 kPa, Fluid (supercritical or subcritical phases) | 126.59
355.27 K, 1872.5 kPa, Fluid (supercritical or subcritical phases) | 128.81
355.27 K, 1894.5 kPa, Fluid (supercritical or subcritical phases) | 131.08
355.27 K, 1916.5 kPa, Fluid (supercritical or subcritical phases) | 133.35
355.27 K, 1938.7 kPa, Fluid (supercritical or subcritical phases) | 135.65
355.27 K, 1959.7 kPa, Fluid (supercritical or subcritical phases) | 137.89
355.27 K, 1982.8 kPa, Fluid (supercritical or subcritical phases) | 140.34
355.27 K, 2005.5 kPa, Fluid (supercritical or subcritical phases) | 142.79
355.27 K, 2026.6 kPa, Fluid (supercritical or subcritical phases) | 145.09
355.27 K, 2048.1 kPa, Fluid (supercritical or subcritical phases) | 147.46
355.27 K, 2070.2 kPa, Fluid (supercritical or subcritical phases) | 150.03
355.27 K, 2091.7 kPa, Fluid (supercritical or subcritical phases) | 152.48
355.27 K, 2135.3 kPa, Fluid (supercritical or subcritical phases) | 157.72
355.27 K, 2158.3 kPa, Fluid (supercritical or subcritical phases) | 160.53
355.27 K, 2179.4 kPa, Fluid (supercritical or subcritical phases) | 163.15
355.27 K, 2202.1 kPa, Fluid (supercritical or subcritical phases) | 165.99
355.27 K, 2224 kPa, Fluid (supercritical or subcritical phases) | 168.96
355.27 K, 2247.3 kPa, Fluid (supercritical or subcritical phases) | 172.07
355.27 K, 2269.2 kPa, Fluid (supercritical or subcritical phases) | 174.95
355.27 K, 2292 kPa, Fluid (supercritical or subcritical phases) | 178.14
355.27 K, 2312.5 kPa, Fluid (supercritical or subcritical phases) | 181.03
355.27 K, 2334.2 kPa, Fluid (supercritical or subcritical phases) | 184.18
355.27 K, 2357.3 kPa, Fluid (supercritical or subcritical phases) | 187.61
355.27 K, 2380.5 kPa, Fluid (supercritical or subcritical phases) | 191.26
355.27 K, 2392.5 kPa, Fluid (supercritical or subcritical phases) | 193.1
355.27 K, 2415.5 kPa, Fluid (supercritical or subcritical phases) | 196.68
355.27 K, 2439.9 kPa, Fluid (supercritical or subcritical phases) | 200.64
355.27 K, 2460.5 kPa, Fluid (supercritical or subcritical phases) | 204.27
355.27 K, 2484.5 kPa, Fluid (supercritical or subcritical phases) | 208.35
355.27 K, 2507 kPa, Fluid (supercritical or subcritical phases) | 212.34
355.27 K, 2520.2 kPa, Fluid (supercritical or subcritical phases) | 214.82
355.27 K, 2544.4 kPa, Fluid (supercritical or subcritical phases) | 219.44
355.27 K, 2556.6 kPa, Fluid (supercritical or subcritical phases) | 221.88
355.27 K, 2578.3 kPa, Fluid (supercritical or subcritical phases) | 226.29
355.27 K, 2599.8 kPa, Fluid (supercritical or subcritical phases) | 230.72
355.27 K, 2622.7 kPa, Fluid (supercritical or subcritical phases) | 235.78
355.27 K, 2645.2 kPa, Fluid (supercritical or subcritical phases) | 240.85
355.27 K, 2666.2 kPa, Fluid (supercritical or subcritical phases) | 245.89
355.27 K, 2688.5 kPa, Fluid (supercritical or subcritical phases) | 251.47
355.27 K, 2710.9 kPa, Fluid (supercritical or subcritical phases) | 257.56
355.27 K, 2733.3 kPa, Fluid (supercritical or subcritical phases) | 263.91
355.27 K, 2754.7 kPa, Fluid (supercritical or subcritical phases) | 270.59
355.27 K, 2776.5 kPa, Fluid (supercritical or subcritical phases) | 277.69
355.27 K, 2797.6 kPa, Fluid (supercritical or subcritical phases) | 285.33
355.27 K, 2818.7 kPa, Fluid (supercritical or subcritical phases) | 293.63
355.27 K, 2839.2 kPa, Fluid (supercritical or subcritical phases) | 302.86
355.27 K, 2859.6 kPa, Fluid (supercritical or subcritical phases) | 313.18
355.27 K, 2880.7 kPa, Fluid (supercritical or subcritical phases) | 325.44
355.27 K, 2900.2 kPa, Fluid (supercritical or subcritical phases) | 339.29
355.27 K, 2901.3 kPa, Fluid (supercritical or subcritical phases) | 340.48
355.27 K, 2902.9 kPa, Fluid (supercritical or subcritical phases) | 341.95
355.27 K, 2904 kPa, Fluid (supercritical or subcritical phases) | 342.82
355.27 K, 2905.6 kPa, Fluid (supercritical or subcritical phases) | 344.36
355.27 K, 2906.7 kPa, Fluid (supercritical or subcritical phases) | 345.34
355.27 K, 2908.4 kPa, Fluid (supercritical or subcritical phases) | 347.2
355.27 K, 2909.4 kPa, Fluid (supercritical or subcritical phases) | 348.62
355.27 K, 2910.6 kPa, Fluid (supercritical or subcritical phases) | 349.91
355.27 K, 2911.7 kPa, Fluid (supercritical or subcritical phases) | 352.16
355.27 K, 2913.4 kPa, Fluid (supercritical or subcritical phases) | 357.67
355.27 K, 2914.7 kPa, Fluid (supercritical or subcritical phases) | 388.98
355.27 K, 2915.5 kPa, Fluid (supercritical or subcritical phases) | 400.54
357.01 K, 3028.5 kPa, Liquid | 789.77
357.01 K, 3030.8 kPa, Liquid | 791.93
357.01 K, 3032.9 kPa, Liquid | 793.76
357.01 K, 3035 kPa, Liquid | 795.08
357.01 K, 3037.1 kPa, Liquid | 796.63
357.01 K, 3039.5 kPa, Liquid | 798.44
357.01 K, 3041.7 kPa, Liquid | 799.96
357.01 K, 3044 kPa, Liquid | 801.6
357.01 K, 3046 kPa, Liquid | 802.75
357.01 K, 3052 kPa, Liquid | 806.74
357.01 K, 3055.7 kPa, Liquid | 808.82
357.01 K, 3059.3 kPa, Liquid | 810.72
357.01 K, 3062.9 kPa, Liquid | 812.63
357.01 K, 3066.3 kPa, Liquid | 814.7
357.01 K, 3069.9 kPa, Liquid | 816.53
357.01 K, 3073.4 kPa, Liquid | 818.11
357.01 K, 3077.1 kPa, Liquid | 819.71
357.01 K, 3081.1 kPa, Liquid | 821.77
357.01 K, 3084.7 kPa, Liquid | 823.28
357.01 K, 3088.4 kPa, Liquid | 824.79
357.01 K, 3095.6 kPa, Liquid | 828.01
357.01 K, 3097.6 kPa, Liquid | 828.88
357.01 K, 3104.3 kPa, Liquid | 831.16
357.01 K, 3114.1 kPa, Liquid | 834.77
357.01 K, 3123.9 kPa, Liquid | 838.1
357.01 K, 3133.7 kPa, Liquid | 841.6
357.01 K, 3153.7 kPa, Liquid | 847.97
357.01 K, 3163.8 kPa, Liquid | 850.53
357.01 K, 3173.8 kPa, Liquid | 853.47
357.01 K, 3184.9 kPa, Liquid | 856.37
357.01 K, 3195 kPa, Liquid | 858.9
357.01 K, 3205.2 kPa, Liquid | 861.29
357.01 K, 3230.2 kPa, Liquid | 866.99
357.01 K, 3243.1 kPa, Liquid | 869.66
357.01 K, 3256.4 kPa, Liquid | 872.23
357.01 K, 3269.5 kPa, Liquid | 874.91
357.01 K, 3282.6 kPa, Liquid | 877.54
357.01 K, 3295.4 kPa, Liquid | 879.85
357.01 K, 3307.9 kPa, Liquid | 882.22
357.01 K, 3320.3 kPa, Liquid | 884.31
357.01 K, 3334 kPa, Liquid | 886.47
357.01 K, 3347.2 kPa, Liquid | 888.84
357.01 K, 3373.4 kPa, Liquid | 892.84
357.01 K, 3387.8 kPa, Liquid | 895.05
357.01 K, 3400.4 kPa, Liquid | 896.81
357.01 K, 3418.8 kPa, Liquid | 899.41
357.01 K, 3438.2 kPa, Liquid | 902.07
357.01 K, 3457.5 kPa, Liquid | 904.69
357.01 K, 3477.9 kPa, Liquid | 907.3
357.01 K, 3514.9 kPa, Liquid | 911.85
357.01 K, 3540.5 kPa, Liquid | 914.94
357.01 K, 3590.4 kPa, Liquid | 920.73
357.01 K, 3614.6 kPa, Liquid | 923.49
357.01 K, 3639.2 kPa, Liquid | 926.14
357.01 K, 3664.9 kPa, Liquid | 928.77
357.01 K, 3689.5 kPa, Liquid | 931.28
357.01 K, 3714.8 kPa, Liquid | 933.72
357.01 K, 3740.1 kPa, Liquid | 936.03
357.01 K, 3764.8 kPa, Liquid | 938.27

Liquid
Conditions | vapor or sublimation pressure [kPa]
356.24 K | 2965.3
356.76 K | 2998.5
